Biological target: farnesyl protein transferase (FPTase) (Homo sapiens, UniProt P49354+P49356)
Experiment: In vitro assay for inhibition of farnesyl protein transferase
Type: biochemical
Settings: test dose of 10^−7 M
Experimental: An in vitro assay for inhibition of farnesyl transferase was performed essentially as described in WO 98/40383, pages 33-34.

| inhibition at 0.1 µM | SMILES |
| --- | --- |
| ≥ 10% | N#Cc1ccc(Cn2cnnc2CN(Cc2ccc(F)cc2F)C(=O)c2ccc(-c3ccccc3C(F)(F)F)o2)cc1 [compound 281] |
| ≥ 10% | C/C(=C\c1ccccc1)C(=O)N(Cc1ccc(F)cc1F)Cc1nncn1Cc1ccc(C#N)cc1 [compound 282] |
| ≥ 10% | N#Cc1ccc(Cn2cnnc2CN(Cc2ccc(F)cc2F)C(=O)c2cccc(-c3cc(Cl)cc(Cl)c3)c2)cc1 [compound 283] |
| ≥ 10% | N#Cc1ccc(Cn2cnnc2CN(Cc2ccc(Cl)cc2Cl)C(=O)c2ccc3ccccc3n2)cc1 [compound 284] |
| ≥ 10% | N#Cc1ccc(Cn2cnnc2CN(Cc2ccc(F)cc2F)C(=O)c2cccc(Br)n2)cc1 [compound 285] |
| ≥ 10% | N#Cc1ccc(Cn2cnnc2CN(Cc2ccc(Cl)c(Cl)c2)C(=O)c2ccc3ccccc3n2)cc1 [compound 286] |
| ≥ 10% | Cc1ccc(C(=O)N(Cc2ccc(F)cc2F)Cc2nncn2Cc2ccc(C#N)cc2)cc1-c1ccsc1 [compound 288] |
| ≥ 10% | N#Cc1ccc(Cn2cnnc2CN(Cc2ccc(F)cc2F)C(=O)C2=Cc3ccccc3OC2)cc1 [compound 289] |
| ≥ 10% | COc1cc(Cn2cnnc2CN(Cc2ccc(F)cc2F)C(=O)c2ccc3ccccc3n2)ccc1[N+](=O)[O-] [compound 290] |
| ≥ 10% | N#Cc1ccc(Cn2cnnc2CN(Cc2ccc(F)cc2F)C(=O)c2cc(Br)cc3c2OCC3)cc1 [compound 291] |
| ≥ 10% | N#Cc1ccc(Cn2cnnc2CN(Cc2ccc(F)cc2F)C(=O)c2ccc(-c3cccc(C(F)(F)F)c3)o2)cc1 [compound 292] |
| ≥ 10% | N#Cc1ccc(Cn2cnnc2CN(Cc2ccc(F)cc2F)C(=O)c2ccc(OC(F)(F)F)c(Cl)c2)cc1 [compound 293] |
| ≥ 10% | N#Cc1ccc(Cn2cnnc2CN(Cc2ccccc2Cl)C(=O)c2ccc3ccccc3n2)cc1 [compound 294] |
| ≥ 10% | N#Cc1ccc(Cn2cnnc2CN(Cc2ccc(F)cc2F)C(=O)c2ccc3ccccc3n2)nc1 [compound 295] |
| ≥ 10% | N#Cc1ccc(Cn2cnnc2CN(Cc2ccc(F)cc2F)C(=O)c2ccc(-c3cc(Cl)cc(Cl)c3)o2)cc1 [compound 296] |
| ≥ 10% | N#Cc1ccc(Cn2cnnc2CN(Cc2ccc(F)cc2)C(=O)c2ccc3ccccc3n2)cc1 [compound 297] |

| inhibition at 0.1 µM | SMILES |
| --- | --- |
| ≥ 10% | COc1cc(C(=O)N(Cc2ccc(F)cc2F)Cc2nncn2Cc2ccc(C#N)cc2)nc2ccccc12 [compound 298] |
| ≥ 10% | N#Cc1ccc(Cn2cnnc2CN(Cc2ccc(F)cc2F)C(=O)c2cc3ccccc3o2)cc1 [compound 299] |
| ≥ 10% | N#Cc1ccc(Cn2cnnc2CN(Cc2ccc(F)cc2F)C(=O)c2ccc3ccccc3n2)cc1 [compound 300] |
| ≥ 10% | N#Cc1ccc(Cn2cnnc2CN(Cc2ccc(F)cc2F)C(=O)c2nc3ccccc3nc2O)cc1 [compound 301] |
| ≥ 10% | N#Cc1ccc(Cn2cnnc2CN(Cc2ccc(C(F)(F)F)cc2)C(=O)c2ccc3ccccc3n2)cc1 [compound 302] |
| ≥ 10% | N#Cc1ccc(Cn2cnnc2CN(Cc2c(F)cccc2F)C(=O)c2ccc3ccccc3n2)cc1 [compound 303] |
| ≥ 10% | N#Cc1ccc(Cn2cnnc2CN(Cc2ccc(Br)cc2)C(=O)c2ccc3ccccc3n2)cc1 [compound 304] |
| ≥ 10% | N#Cc1ccc(Cn2cnnc2CN(Cc2cc(F)cc(F)c2)C(=O)c2ccc3ccccc3n2)cc1 [compound 305] |
| ≥ 10% | N#Cc1ccc(Cn2cnnc2CN(Cc2ccccc2F)C(=O)c2ccc3ccccc3n2)cc1 [compound 306] |
| ≥ 10% | N#Cc1ccc(Cn2cnnc2CN(Cc2cccc(F)c2F)C(=O)c2ccc3ccccc3n2)cc1 [compound 307] |
| ≥ 10% | Cc1ccc(C(=O)N(Cc2ccc(F)cc2F)Cc2nncn2Cc2ccc(C#N)cc2)cc1-c1cc(Cl)cc(Cl)c1 [compound 308] |
| ≥ 10% | Cc1ccc(C(=O)N(Cc2ccc(F)cc2F)Cc2nncn2Cc2ccc(C#N)cc2)cc1Br [compound 309] |
| ≥ 10% | Cc1nnc(CN(Cc2ccc(F)cc2F)C(=O)c2ccc3ccccc3n2)n1Cc1ccc(C#N)cc1 [compound 311] |
| ≥ 10% | Cc1nnc(CN(Cc2ccc(F)cc2F)C(=O)c2ccc3ccccc3n2)n1-c1ccc(C#N)cc1 [compound 313] |
| ≥ 10% | Cc1ccc(Br)cc1C(=O)N(Cc1ccc(F)cc1F)Cc1nncn1Cc1ccc(C#N)cc1 [compound 314] |
| ≥ 10% | N#Cc1ccc(Cn2cnnc2CN(Cc2ccc(F)cc2F)C(=O)c2ccc3ccccc3c2)cc1 [compound 315] |

Second part, the compound before the results:

| SMILES | inhibition at 0.1 µM |
| --- | --- |
| N#Cc1ccc(Cn2cnnc2CN(Cc2ccc(F)cc2F)C(=O)/C=C/c2ccccc2Cl)cc1 [compound 249] | ≥ 10% |
| N#Cc1ccc(Cn2cnnc2CN(Cc2ccc(F)cc2F)C(=O)/C=C/c2ccc(Cl)c(Cl)c2)cc1 [compound 250] | ≥ 10% |
| N#Cc1ccc(Cn2cnnc2CN(CCc2ccc(Br)cc2)C(=O)c2cc3ccccc3o2)cc1 [compound 251] | ≥ 10% |
| N#Cc1ccc(Cn2cnnc2CN(Cc2ccc(F)cc2F)C(=O)c2cc3ccccc3oc2=O)cc1 [compound 252] | ≥ 10% |
| Cc1cccc(C(=O)N(Cc2ccc(F)cc2F)Cc2nncn2Cc2ccc(C#N)cc2)c1 [compound 253] | ≥ 10% |
| Cc1cccc(/C=C/C(=O)N(Cc2ccc(F)cc2F)Cc2nncn2Cc2ccc(C#N)cc2)c1 [compound 254] | ≥ 10% |
| COC(=O)c1cc(C)nc(N(Cc2nnc[nH]2)Cc2ccc(F)cc2F)[n+]1Cc1ccc(C#N)cc1 [compound 255] | ≥ 10% |
| N#Cc1ccc(Cn2cnnc2CN(C(=O)c2ccc3ccccc3n2)c2ccc(Oc3ccccc3)cc2)cc1 [compound 256] | ≥ 10% |
| N#Cc1ccc(Cn2cnnc2CN(c2ccc(Oc3ccccc3)cc2)c2nccc(C(F)(F)F)n2)cc1 [compound 257] | ≥ 10% |
| CC1=C(C(=O)N(Cc2ccc(F)cc2F)Cc2nncn2Cc2ccc(C#N)cc2)Cc2ccccc21 [compound 258] | ≥ 10% |
| N#Cc1ccc(Cn2cnnc2CN(Cc2ccc(F)cc2F)C(=O)c2cccc(-c3ccccc3C(F)(F)F)c2)cc1 [compound 259] | ≥ 10% |
| Cc1ccccc1-c1cc(C(=O)N(Cc2ccc(F)cc2F)Cc2nncn2Cc2ccc(C#N)cc2)ccc1C [compound 260] | ≥ 10% |
| N#Cc1ccc(Cn2cnnc2CN(CCC(c2ccccc2)c2ccccc2)C(=O)C2CCN(S(=O)(=O)c3ccc(F)cc3)CC2)cc1 [compound 261] | ≥ 10% |
| Cc1ccc(C(=O)N(Cc2ccc(F)cc2F)Cc2nncn2Cc2ccc(C#N)cc2)cc1C [compound 262] | ≥ 10% |
| N#Cc1ccc(Cn2cnnc2CN(CCc2ccc(Cl)cc2)C(=O)c2ccc3ccccc3n2)cc1 [compound 264] | ≥ 10% |
| N#Cc1ccc(Cn2cnnc2CN(CCc2ccc(Br)cc2)C(=O)c2ccc3ccccc3c2)cc1 [compound 265] | ≥ 10% |

| SMILES | inhibition at 0.1 µM |
| --- | --- |
| N#Cc1ccc(Cn2cnnc2CN(Cc2ccc(F)cc2F)C(=O)/C(=C/c2ccccc2)c2ccccc2)cc1 [compound 266] | ≥ 10% |
| COc1ccccc1/C=C/C(=O)N(Cc1ccc(F)cc1F)Cc1nncn1Cc1ccc(C#N)cc1 [compound 267] | ≥ 10% |
| COc1ccc2oc(C(=O)N(Cc3ccc(F)cc3F)Cc3nncn3Cc3ccc(C#N)cc3)cc2c1 [compound 268] | ≥ 10% |
| N#Cc1ccc(Cn2cnnc2CN(CCc2ccc(Br)cc2)C(=O)c2ccc3ccccc3n2)cc1 [compound 269] | ≥ 10% |
| N#Cc1ccc(Cn2cnnc2CN(Cc2ccc(F)cc2F)C(=O)c2cc3ccccc3s2)cc1 [compound 270] | ≥ 10% |
| N#Cc1ccc(Cn2cnnc2CN(CCSCc2c(F)cccc2Cl)C(=O)c2ccc3ccccc3n2)cc1 [compound 271] | ≥ 10% |
| N#Cc1ccc(Cn2cnnc2CN(Cc2ccc(F)cc2F)C(=O)c2ccc(-c3ccc(F)c(Cl)c3)o2)cc1 [compound 272] | ≥ 10% |
| O=C(c1ccc2ccccc2n1)N(Cc1ccc(F)cc1F)Cc1nncn1Cc1ccc([N+](=O)[O-])cc1 [compound 273] | ≥ 10% |
| N#Cc1ccc(Cn2cnnc2CN(Cc2ccc(F)cc2F)C(=O)c2ccc(-c3ccc(F)cc3)o2)cc1 [compound 274] | ≥ 10% |
| N#Cc1ccc(Cn2cnnc2CN(Cc2cccc(Cl)c2)C(=O)c2ccc3ccccc3n2)cc1 [compound 275] | ≥ 10% |
| N#Cc1ccc(Cn2cnnc2CN(CCc2ccc(F)cc2)C(=O)c2ccc3ccccc3n2)cc1 [compound 276] | ≥ 10% |
| Cc1cc(C(=O)N(Cc2ccc(F)cc2F)Cc2nncn2Cc2ccc(C#N)cc2)ccc1Br [compound 277] | ≥ 10% |
| N#Cc1ccc(Cn2cnnc2CN(Cc2ccc(F)cc2F)C(=O)c2cccc(-c3ccsc3)n2)cc1 [compound 278] | ≥ 10% |
| N#Cc1ccc(Cn2cnnc2CN(Cc2ccc(F)cc2F)C(=O)c2cccc(Cl)n2)cc1 [compound 279] | ≥ 10% |
| N#Cc1ccc(Cn2cnnc2CN(Cc2ccccc2OC(F)(F)F)C(=O)c2ccc3ccccc3n2)cc1 [compound 280] | ≥ 10% |
